Broadly, the Ki is a dissociation constant, usually derived from enzyme kinetics or from competition with a known ligand.

Bounds are passed on as bounds.

The assay deals with HPK1 (Homo sapiens (Human), UniProt Q92918). The experiment in a line: HPK1 Kinase Binding Assay. The settings on record: LanthaScreen tracer 222 binding, active HPK1, one hour incubation at 25° C. The method, boiled down: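 This is a LanthaScreen tracer-binding format: a tracer 222/Eu-anti-GST antibody mix (18 nM and 4 nM solution) is added to active HPK1 (4 nM solution) with 3-fold, 11-point compound dilutions. Incubation is 1 h at 25 °C in HEPES pH 7.5 buffer before reading, and Ki is determined.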
Sequence of HPK1 (Q92918 1-346): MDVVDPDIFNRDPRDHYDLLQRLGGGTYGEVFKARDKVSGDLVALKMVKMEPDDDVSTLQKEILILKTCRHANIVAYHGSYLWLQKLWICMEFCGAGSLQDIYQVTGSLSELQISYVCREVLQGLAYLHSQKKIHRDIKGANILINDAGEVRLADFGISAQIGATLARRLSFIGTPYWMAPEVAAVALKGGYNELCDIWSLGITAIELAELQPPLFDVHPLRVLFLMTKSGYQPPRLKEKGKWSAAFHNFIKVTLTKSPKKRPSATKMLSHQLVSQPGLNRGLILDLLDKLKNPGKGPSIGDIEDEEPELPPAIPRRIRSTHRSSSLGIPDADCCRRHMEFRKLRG

On to `Cc1cc2c(c(F)c1-c1ncc3[nH]nc(-c4ccc(N5CCN(C)CC5)nc4)c3n1)CNCC2` [Example 112, 8-Fluoro-6-methyl-7-(3-(6-(4-methylpiperazin-1-yl)pyridin-3-yl)-1H-pyrazolo[4,3-d]pyrimidin-5-yl)-1,2,3,4-tetrahydroisoquinoline], for which the Ki was ≤ 100 nM.

The record behind these values is US11014929B2, “Pyrazolopyrimidine compounds and uses thereof” (Incyte Corporation, priority 2016, dated 2021).
